Source: EP0015584A2, “Nucleotides, methods for their preparation and medicaments” (Gauri, Kailash Kumar, Dr. Prof., priority 1979, dated 1980)

Key:
Herpes-Simplex-Viren = test: Inhibition of herpes simplex virus replication in tissue cultures of chick embryo fibroblasts; format: cell-based; details: Gewebekulturen von Hühnerembryofibroblasten; Konzentration 10 µg/ml
Method: Dem «-XDU-Monophosphat kommt eine ungewöhnliche Eigenschaft zu, die vom Fachmann nicht vorhersehbar war. Es ist nämlich in der Lage, die Vermehrung von Herpes-Simplex-Viren zu hemmen. In Gewebekulturen von HUhnerembryofibroblasten hemmt α-ÄDU-MP in einer Konzentration von 10 µg/ml deutlich die Virusvermehrung. Unter gleicher Bedingung ist α-ÄDU selbst ohne Wirkung.

resistente Herpesviren = test: Local treatment of herpes keratitis produced with resistant strains; format: in vivo; details: Kaninchen, lokal, bis zu 7 mal täglich, bis zu 11 Tage; JDU-MP 0,1 bis 1 %, ÄDU-MP 0,1 bis 8 %, TFT-MP 0,1 bis 2 %, ARA-A-MP 0,2 bis 2 %, Acycloguanosin-Monophosphat 0,5 bis 5 %
Method: Man züchtet Herpes-Viren in Gewebekulturen von menschlichen Fibroblastzellen über 1 bis 5 Passagen in Gegenwart von Nukleosiden, wie beispielsweise ÄDU (Äthyldesoxyuridin), Konzentration: 20 µg/ml, TFT (Trifluorthymidin) Konzentration 5 bis 10 µg/ml, ARA-A-MP (Arabinofuranosyladenin-Monophosphat),Konzentration 20 µg/ml, Acycloguanosin (ACG), Konzentration 5 bis 30 µg/ml, wobei der Saatvirus auf die Cornea der Tiere (Hamster, Kaninchen) durch Aufträufeln übertragen wird. Zwei Stunden nach der Übertragung erfolgt die Behandlung der Cornea lokal mit den entsprechenden Nukleosiden in den oben angegebenen Konzentrationen. Dabei zeigt sich, daß die Viren für die Nukleoside resistent werden. Die Bewertung der Infektion erfolgt durch Anfärben der Hornhaut mit Fluorescin-Na-Lösung (1 %) und anschließende Farbphotodokumentation.
Die Behandlung der Herpes-Keratitis bei Kaninchen, erzeugt mit den resistenten Stämmen, erfolgt lokal mit folgenden Wirkstoffen: JDU-MP (Joddesoxyuridin-Monophosphat), Konzentration 0,1 bis 1 %, ÄDU-MP (Äthyldesoxyuridin-Monophosphat), Konzentration: 0,1 bis 8 %, TFT-MP (Trifluor- thymidin-Monophosphat), Konzentration: 0,1 bis 2 %, ARA-A-MP (Arabinofuranosyladenin-Monophosphat), Konzentration: 0,2 bis 2 %, Acycloguanosin-Monophosphat, Konzentration: 0,5 bis 5 %, bis zu 7 mal täglich für die Dauer von bis zu 11 Tagen.

DNS = test: Incorporation into DNA (stated property, no method described); details: acts virostatically; no test described

With CCc1cn([C@@H]2C[C@H](O)[C@@H](CO)O2)c(=O)[nH]c1=O [α-ÄDU, α-5-Äthyl-2'-deoxyuridin, reference compound] the “Hemmung der Virusvermehrung” value (Herpes-Simplex-Viren) was “ohne Wirkung”.

With CCc1cn([C@H]2C[C@H](O)[C@@H](COP(=O)(O)O)O2)c(=O)[nH]c1=O [ÄDU-MP, Äthyldesoxyuridin-Monophosphat] the “Bekämpfung der durch resistente Herpesviren verursachten Infektion (Herpes-Keratitis)” value (resistente Herpesviren) was “wirksam bekämpfen”.

In the case of O=c1[nH]c(=O)n([C@H]2C[C@H](O)[C@@H](COP(=O)(O)O)O2)cc1I [JDU-MP, Joddesoxyuridin-Monophosphat], the “Bekämpfung der durch resistente Herpesviren verursachten Infektion (Herpes-Keratitis)” value (resistente Herpesviren) is reported as “wirksam bekämpfen”.

For O=c1[nH]c(=O)n([C@H]2C[C@H](O)[C@@H](COP(=O)(O)O)O2)cc1C(F)(F)F [TFT-MP, Trifluor- thymidin-Monophosphat], the “Bekämpfung der durch resistente Herpesviren verursachten Infektion (Herpes-Keratitis)” value (resistente Herpesviren) was “wirksam bekämpfen”.

In the case of CCc1cn([C@@H]2C[C@H](O)[C@@H](COP(=O)(O)O)O2)c(=O)[nH]c1=O [α-ÄDU-MP, α-5-Äthyl-2'-deoxyuridin-5'-monophosphat], the “Hemmung der Virusvermehrung” value (Herpes-Simplex-Viren) is reported as “deutlich” and the “Einbau in die DNS” value (DNS) is reported as “ohne in die DNS eingebaut zu werden”.

For Nc1nc2c(ncn2COCCOP(=O)(O)O)c(=O)[nH]1 [Acycloguanosin-Monophosphat], the “Bekämpfung der durch resistente Herpesviren verursachten Infektion (Herpes-Keratitis)” value (resistente Herpesviren) was “wirksam bekämpfen”.
